Source: article PMC5646861 (PLoS ONE, 2017)

Key:
SMO-1 [1] = molecular target: T1, SMO-1 (Caenorhabditis elegans, UniProt P55853); assay: In vitro SMO-1 conjugation assay with FITC-labelled synthetic peptide substrate (human Aos1/Uba2 E1, human Ubc9 E2); type: biochemical, C. elegans; set-up: inferred from pET15b vector with NdeI/BamHI and Ni-NTA purification) (N); made in house; conditions: 10mM of peptide, 50 μM SMO-1 or SUMO1, 1 μM E1, 2.5 μM E2, 1 mM ATP, 4°C, 12 hours, 20 mM Tris-Cl pH 8.5, 250 mM NaCl, 5 mM MgCl2, 0.1% v/v Tween 20; SDS-PAGE, FITC fluorescence 519 nm
Experimental: A synthetic peptide, sequence–[…] with Fluorescein iso-thiocyanate (FITC) label at the N-terminus was used as substrate. […] Reaction was carried out at 4°C for 12 hours. The reaction was started by adding 1 mM ATP. Reaction buffer contained 20 mM Tris-Cl pH 8.5, 250 mM NaCl, 5 mM MgCl2, 0.1% v/v Tween 20. […] Reaction buffer was the same as above. The reaction was carried out at 37°C for 4 hours. All reactions were stopped by adding reducing SDS loading dye. Reaction samples were run on 12% w/v SDS PAGE and analysed by probing FITC fluorescence at 519 nm wavelength (excitation wavelength– 495 nm).
To assess the ability of SMO-1 to be conjugated and deconjugated to substrates we developed an in vitro assay. […] As a substrate we used a synthetic peptide harbouring two consensus SUMOylation sites found in the IE2 protein (Fig 6A). To facilitate detection of SUMOylated peptide on SDS-PAGE gels we labelled the peptide with Fluorescein iso-thiocyanate (FITC) fluorophore. […] To verify, we carried out an in-vitro reaction with FITC tagged SMO-1.
(A) Sequence of FITC fluorophore labelled peptide used as substrate in in vitro SUMOylation assays. The lysines competent for SUMOylation are in bigger font and in bold face. All subsequent images were obtained by observing FITC fluorescence at 519 nm unless otherwise mentioned. […] The SDS-PAGE gel is imaged by observing YFP fluorescence. […]
Target sequence in this assay (P55853 1-90): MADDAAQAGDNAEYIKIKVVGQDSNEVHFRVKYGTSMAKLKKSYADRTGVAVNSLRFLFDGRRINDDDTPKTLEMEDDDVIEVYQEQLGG
Target sequence in this assay (P63279 whole entry, further chain): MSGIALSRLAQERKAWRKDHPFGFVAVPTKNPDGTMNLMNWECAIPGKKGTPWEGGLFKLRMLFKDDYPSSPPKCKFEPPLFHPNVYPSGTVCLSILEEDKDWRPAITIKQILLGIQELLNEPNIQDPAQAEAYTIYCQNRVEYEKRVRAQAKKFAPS

SMO-1 [2] = molecular target: T1, SMO-1; assay: NMR titration (15N-HSQC chemical shift perturbation) of SMO-1 with SIM peptides; type: binding; set-up: inferred from pET15b vector with NdeI/BamHI and Ni-NTA purification) (N); made in house; host or cells: E. coli BL21(DE3)
SMO-1-YFP = assay: De-conjugation (maturation) assay of SMO-1-YFP with SENP2; type: biochemical, C. elegans; conditions: 50mM Tris-Cl pH 7.5 @ 25°C, 150mM NaCl, 1mM DTT; 25–37°C, 6 hours; SDS-PAGE, YFP fluorescence and Coomassie
Experimental: (§1) Deconjugation Assays were performed by adding 10μM SENP2 to poly-SUMO1/2 and poly-SMO-1 chains in the same reaction mix used for conjugation. Deconjugation reaction was carried out at 25°C for 2–3 hours. Reactions were stopped by adding reducing SDS loading dye. Reaction samples were run on 12% w/v SDS PAGE and analysed by probing FITC fluorescence at 519 nm wavelength (excitation wavelength– 495 nm). SMO-1-YFP was checked for deconjugation in 50mM Tris-Cl pH 7.5 @ 25°C, 150mM NaCl, 1mM DTT reaction buffer. SENP2 was mixed with SMO-1-YFP and incubated at temperatures from 25–37°C for 6 hours. The reaction mix were then run separately on two SDS-PAGE gels for imaging using fluorescence and for staining with Coomassie Brilliant Blue R-250 Dye.
(§2) DeSUMOylation enzymes can cleave SUMO chains, making the process reversible to enable another level of control over the SUMOylation process.

[3] = tested on: substrate-polySMO-1 conjugates; assay: In vitro SMO-1 deconjugation assay with SENP2 on SMO-1 chains from the peptide; type: biochemical; conditions: 10μM SENP2 (human), same reaction mix as conjugation, 25°C, 2–3 hours; SDS-PAGE, FITC fluorescence
Experimental: as §1, §2

PLIKQEDIKPEPDFTIQYRNKIIDTAGCIVISDSEEE [synthetic peptide, synthetic peptide harbouring two consensus SUMOylation sites found in the IE2 protein]
SMO-1 conjugation on the substrate (SMO-1 [1]): Rapid SMO-1 conjugation was observed on the substrate

CC[C@H](C)[C@H](NC(=O)[C@H](CS)NC(=O)CNC(=O)[C@H](C)NC(=O)[C@@H](NC(=O)[C@@H](N)CC(=O)O)[C@@H](C)O)C(=O)N[C@H](C(=O)N[C@H](C(=O)N[C@@H](CO)C(=O)N[C@@H](CC(=O)O)C(=O)N[C@@H](CO)C(=O)N[C@@H](CCC(=O)O)C(=O)N[C@@H](CCC(=O)O)C(=O)N[C@@H](CCC(=O)O)C(=O)N[C@@H](CCC(N)=O)C(=O)NCC(=O)N[C@@H](CCC(=O)O)C(=O)N[C@@H](CCC(=O)O)C(=O)N[C@@H](Cc1c[nH]c2ccccc12)C(=O)O)[C@@H](C)CC)C(C)C [IE2-SIM]
Kd (SMO-1 [2]): 108 µM

B1: SENP2: human deSUMOylation enzyme (protein, UniProt Q9HC62 1-589, looked up)
Sentrin-specific protease 2: MYRWLVRILGTIFRFCDRSVPPARALLKRRRSDSTLFSTVDTDEIPAKRPRLDCFIHQVKNSLYNAASLFGFPFQLTTKPMVTSACNGTRNVAPSGEVFSNSSSCELTGSGSWNNMLKLGNKSPNGISDYPKIRVTVTRDQPRRVLPSFGFTLNSEGCNRRPGGRRHSKGNPESSLMWKPQEQAVTEMISEESGKGLRRPHCTVEEGVQKEEREKYRKLLERLKESGHGNSVCPVTSNYHSSQRSQMDTLKTKGWGEEQNHGVKTTQFVPKQYRLVETRGPLCSLRSEKRCSKGKITDTETMVGIRFENESRRGYQLEPDLSEEVSARLRLGSGSNGLLRRKVSIIETKEKNCSGKERDRRTDDLLELTEDMEKEISNALGHGPQDEILSSAFKLRITRGDIQTLKNYHWLNDEVINFYMNLLVERNKKQGYPALHVFSTFFYPKLKSGGYQAVKRWTKGVNLFEQEIILVPIHRKVHWSLVVIDLRKKCLKYLDSMGQKGHRICEILLQYLQDESKTKRNSDLNLLEWTHHSMKPHEIPQQLNGSDCGMFTCKYADYISRDKPITFTQHQMPLFRKKMVWEILHQQLL
cleavage of SMO-1 from SMO-1-YFP by SENP2 (SMO-1-YFP): could cleave SMO-1 from SMO-1-YFP | cleavage of SMO-1 chains from peptide by SENP2 [3]: could efficiently edit the SMO-1 chains from the peptide
